Our source for the IC50 values is US10071976B2, “Small molecule fatty acid synthase inhibitors” (Sanford Burnham Prebys Medical Discovery Institute, priority 2014, dated 2018).

Sequence of FASN-TE (P49327 2207-2511 limits assumed): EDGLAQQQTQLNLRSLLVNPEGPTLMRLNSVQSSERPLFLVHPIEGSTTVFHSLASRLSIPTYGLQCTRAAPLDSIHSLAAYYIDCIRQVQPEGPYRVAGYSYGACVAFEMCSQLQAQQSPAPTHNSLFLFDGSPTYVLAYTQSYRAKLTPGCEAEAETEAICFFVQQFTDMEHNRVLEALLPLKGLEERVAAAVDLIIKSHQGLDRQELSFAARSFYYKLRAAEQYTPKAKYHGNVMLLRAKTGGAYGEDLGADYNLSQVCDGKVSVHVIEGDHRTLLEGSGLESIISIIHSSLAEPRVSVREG

The test concerns the target FASN-TE (Homo sapiens, UniProt P49327). The test can be described thus: In-vitro biochemical assay measuring FAS-TE inhibition (OMFH substrate, fluorescence). On the procedure: Min wells: Substrate+No enzyme+DMSO, Max wells: Substrate+Enzyme+DMSO, Sample wells: Substrate+Enzyme+Test compounds, Reference compound: Orlistat (make a fresh 10 mM stock in DMSO each time). 384-well black, low-volume plate (Greiner #784076)
Assay Protocol: • 1) ECHO transfer 160 nL of 125× Compound (or DMSO for control wells) per well. • 2) For Max and Sample wells: Add 10 μL of Enzyme (2×; 1.8 μM) prepared in RXN Buffer. For Min wells: Add 10 μL of RXN Buffer (No Enzyme). • 3) For all wells: Add 10 μL of Substrate (2×; 20 μM) prepared in diH2O+10% DMSO. • 4) Centrifuge plate for 1 minute at 1,000 rpm. • 5) Measure fluorescence every 5 minutes for 1-1.5 hours using the BMG POLARstar (ex 485 nm/em 520 nm; Gain=1015; 25 flashes). • 6) All volumes can be adjusted but the final DMSO concentration should be kept at about 6%.
Data Analysis: • 1) Calculate slopes and express as % Activity (Min wells=0%; Max wells=100%). • 2) Then, using Prism, calculate the IC50 values.
As to `CCN(CC)S(=O)(=O)c1ccc(-c2csc(NC(=O)C3CCCC3)n2)cc1` [Compound 36], 1200 nM corresponded to half-maximal inhibition (IC50).
The result for `COc1ccccc1C(=O)Nc1nc(-c2ccc(S(=O)(=O)N3CCOCC3)cc2)cs1` [Compound 5] reads 11900 nM.
Regarding `CC(=O)Nc1nc(-c2ccc(S(=O)(=O)N3CCSCC3)cc2)cs1` [Compound 13], the IC50 (usually the midpoint of a concentration-inhibition curve) was above 80000 nM.
`CCN(CC)S(=O)(=O)c1ccc(-c2csc(Cc3ccc(F)cc3)n2)cc1` [Compound 111] registered an IC50 of 2410 nM.
Compound `CCCCC(=O)Nc1nc(-c2ccc(S(=O)(=O)N3CCSCC3)cc2)cs1` [Compound 12] had an IC50 of 710 nM.
`CCCC(=O)Nc1nc(-c2ccc(S(=O)(=O)N3CCCCC3C)cc2)cs1` (stereo not drawn) [Compound 46] displayed a half-inhibitory concentration (IC50) of 580 nM.
The result for `CC(C)C(=O)Nc1nc(-c2ccc(S(=O)(=O)N(C)C)cc2)cs1` [Compound 39] reads 580 nM; that for `CCN(CC)S(=O)(=O)c1ccc(-c2csc(NC(=O)C3CC3)n2)cc1` [Compound 35], 990 nM; that for `CCN(CC)S(=O)(=O)c1ccc(-c2csc(Cc3cccc(F)c3)n2)cc1` [Compound 110], 3150 nM.
The same measure for `CCC(CC)C(=O)Nc1nc(-c2ccc(S(=O)(=O)N(CC)CC)cc2)cs1` [Compound 55]: 330 nM; for `CCC(=O)Nc1nc(-c2ccc(S(=O)(=O)N(CC)CC)cc2)cs1` [Compound 31]: 4250 nM; for `O=C(Nc1nc(-c2ccc(S(=O)(=O)N3CCOCC3)cc2)cs1)C1CC1` [Compound 17]: 5200 nM.
The result for `CC1CCN(S(=O)(=O)c2ccc(-c3csc(NC(=O)C(C)C)n3)cc2)CC1` [Compound 24] reads 660 nM; that for `O=C(COc1ccccc1)Nc1nc(-c2ccc(S(=O)(=O)N3CCOCC3)cc2)cs1` [Compound 3], 420 nM; that for `CC1CCN(S(=O)(=O)c2ccc(-c3csc(NC(=O)C4CC4)n3)cc2)CC1` [Compound 25], above 80000 nM.
`CCCCC(=O)Nc1nc(-c2ccc(S(=O)(=O)N3CCCC3)cc2)cs1` [Compound 8] displayed an IC50 of 200 nM.
`O=C(Nc1nc(-c2ccc(S(=O)(=O)N3CCOCC3)cc2)cs1)C1CCC1` [Compound 18] returned an IC50 of 3600 nM.
Compound `CCCCCCCC(=O)Nc1nc(-c2ccc(S(=O)(=O)N3CCCCC3C)cc2)cs1` (stereo not drawn) [Compound 47] displayed a concentration for half-maximal inhibition (IC50) of 4300 nM.
In turn, `O=S(=O)(c1ccc(-c2csc(-c3cccnc3)n2)cc1)N1CCCC1` [Compound 69] returned an IC50 of 1510 nM.
The compound `O=C(COc1cccc(Cl)c1)Nc1nc(-c2ccc(S(=O)(=O)N3CCOCC3)cc2)cs1` [Compound 2] displayed a concentration for half-maximal inhibition (IC50) of 4500 nM.
The same measure for `CCN(CC)S(=O)(=O)c1ccc(-c2csc(Cc3cccc(I)c3)n2)cc1` [Compound 112]: 5010 nM.
The compound `O=C(Nc1nc(-c2ccc(S(=O)(=O)N3CCCC3)cc2)cs1)c1ccco1` [Compound 4] showed an IC50 of 4680 nM.
The same measure for `O=C(Nc1nc(-c2ccc(S(=O)(=O)N3CCOCC3)cc2)cs1)c1cccs1` [Compound 10]: 32900 nM; for `CCC(C)C(=O)Nc1nc(-c2ccc(S(=O)(=O)N3CCCC3)cc2)cs1` (stereo not drawn) [Compound 48]: 150 nM; for `CCN(CC)S(=O)(=O)c1ccc(-c2csc(Cc3ccccc3OC)n2)cc1` [Compound 113]: 6920 nM.
As to `CCN(CC)S(=O)(=O)c1ccc(-c2csc(-c3cccc(Br)c3)n2)cc1` [Compound 107], the IC50 is at least 80000 nM.
The same measure for `O=S(=O)(c1ccc(-c2csc(N3CCCC3)n2)cc1)N1CCOCC1` [Compound 98]: 1180 nM; for `CCCCC(=O)Nc1nc(-c2ccc(S(=O)(=O)N3CCCCC3C)cc2)cs1` (stereo not drawn) [Compound 45]: 380 nM; for `CCN(CC)S(=O)(=O)c1ccc(-c2csc(-c3ccc(F)cc3)n2)cc1` [Compound 103]: 1110 nM.
`CCN(CC)S(=O)(=O)c1ccc(-c2csc(C(C)(C)C)n2)cc1` [Compound 102] yielded a half-maximal inhibitory concentration (IC50) of 12600 nM.
In turn, `CCC(C)C(=O)Nc1nc(-c2ccc(S(=O)(=O)N3CCOCC3)cc2)cs1` (stereo not drawn) [Compound 15] yielded a half-maximal inhibitory concentration (IC50) of 310 nM.
The same measure for `O=S(=O)(c1ccc(-c2csc(-c3ccc(F)cc3)n2)cc1)N1CCOCC1` [Compound 116]: 1480 nM.
The same measure for `CCC(C)C(=O)Nc1nc(-c2ccc(S(=O)(=O)N3CCC(C)CC3)cc2)cs1` (stereo not drawn) [Compound 60]: 410 nM; for `O=C(Nc1nc(-c2ccc(S(=O)(=O)N3CCCC3)cc2)cs1)C1CC1` [Compound 28]: 560 nM; for `CCCCCCC(=O)Nc1nc(-c2ccc(S(=O)(=O)N(CC)CC)cc2)cs1` [Compound 54]: 1400 nM.
Consider `O=C(Nc1nc(-c2ccc(S(=O)(=O)N3CCOCC3)cc2)cs1)c1ccco1` [Compound 11], for which the IC50 came out at 37400 nM.
Turning to `CCC(=O)Nc1nc(-c2ccc(S(=O)(=O)N3CCCC3)cc2)cs1` [Compound 26], the midpoint of inhibition, the IC50, lay at 650 nM.
The same measure for `CCN(CC)S(=O)(=O)c1ccc(-c2csc(-c3ccc(Br)cc3)n2)cc1` [Compound 105]: at least 80000 nM; for `CC(C)C(=O)Nc1nc(-c2ccc(S(=O)(=O)N3CCOCC3)cc2)cs1` [Compound 6]: 820 nM.
The same measure for `CCN(CC)S(=O)(=O)c1ccc(-c2csc(NC(=O)C(C)C)n2)cc1` [Compound 33]: 280 nM; for `O=S(=O)(c1ccc(-c2csc(-c3cccnc3)n2)cc1)N1CCOCC1` [Compound 81]: 2140 nM; for `CCN(CC)S(=O)(=O)c1ccc(-c2csc(Cc3ccccc3F)n2)cc1` [Compound 109]: 1720 nM.
The result for `CCC(CC)C(=O)Nc1nc(-c2ccc(S(=O)(=O)N3CCCC3)cc2)cs1` [Compound 49] reads 260 nM; that for `CC(C)(C)OC(=O)Nc1nc(-c2ccc(S(=O)(=O)N3CCOCC3)cc2)cs1` [Compound 21], 29000 nM.
With `O=C(Nc1nc(-c2ccc(S(=O)(=O)N3CCOCC3)cc2)cs1)C1CCCC1` [Compound 19], the IC50 was above 80000 nM.
The result for `CN(C)S(=O)(=O)c1ccc(-c2csc(NC(=O)C3CCCC3)n2)cc1` [Compound 43] reads 1600 nM; that for `O=S(=O)(c1ccc(-c2csc(Nc3ccc(F)cc3)n2)cc1)N1CCCC1` [Compound 80], 14800 nM.
Take `CCN(CC)S(=O)(=O)c1ccc(-c2csc(NC(=O)C3CCCCC3)n2)cc1` [Compound 38]: half-maximal inhibition (IC50) required 2900 nM.
The same measure for `CCN(CC)S(=O)(=O)c1ccc(-c2csc(NC(=O)CC(C)C)n2)cc1` [Compound 99]: 19000 nM.
The same measure for `CCN(CC)S(=O)(=O)c1ccc(-c2csc(Cc3cccc(C(F)(F)F)c3)n2)cc1` [Compound 108]: at least 80000 nM; for `CCN(CC)S(=O)(=O)c1ccc(-c2csc(-c3ccc(Cl)cc3)n2)cc1` [Compound 104]: at least 80000 nM.
The same measure for `CN(C)S(=O)(=O)c1ccc(-c2csc(NC(=O)C3CC3)n2)cc1` [Compound 41]: 1200 nM; for `CCCCCCC(=O)Nc1nc(-c2ccc(S(=O)(=O)N3CCC(C)CC3)cc2)cs1` [Compound 58]: 4500 nM.
`CCCCC(=O)Nc1nc(-c2ccc(S(=O)(=O)N(CC)CC)cc2)cs1` [Compound 32] yielded an IC50 of 172 nM.
`CCN(CC)S(=O)(=O)c1ccc(-c2csc(-c3ccc(Br)cc3C)n2)cc1` [Compound 106] gave a half-maximal inhibitory concentration (IC50) of at least 80000 nM.
In turn, `CCCCCC(=O)Nc1nc(-c2ccc(S(=O)(=O)N3CCCC3)cc2)cs1` [Compound 50] gave an IC50 of 140 nM.
The same measure for `CCN(CC)S(=O)(=O)c1ccc(-c2csc(NC(=O)C3CC3)n2)cc1` [Compound 34]: 2300 nM.
In the case of `CC(C)CC(=O)Nc1nc(-c2ccc(S(=O)(=O)N3CCCC3)cc2)cs1` [Compound 52], the half-maximal inhibitory concentration (IC50) came out at 1600 nM.
Take `CC(C)CC(=O)Nc1nc(-c2ccc(S(=O)(=O)N3CCOCC3)cc2)cs1` [Compound 7]: the half-inhibitory concentration (IC50) is 11600 nM.
The same measure for `CC(C)c1nc(-c2ccc(S(=O)(=O)N3CCOCC3)cc2)cs1` [Compound 115]: 21700 nM.
The result for `CCc1nc(-c2ccc(S(=O)(=O)N(CC)CC)cc2)cs1` [Compound 100] reads at least 80000 nM; that for `CN(C)S(=O)(=O)c1ccc(-c2csc(-c3cccnc3)n2)cc1` [Compound 83], 5210 nM.
Regarding `CC(C)CC(=O)Nc1nc(-c2ccc(S(=O)(=O)N3CCC(C)CC3)cc2)cs1` [Compound 59], the IC50 came to 60400 nM.
For `CCC(CC)C(=O)Nc1nc(-c2ccc(S(=O)(=O)N3CCC(C)CC3)cc2)cs1` [Compound 61], 1800 nM corresponded to half-maximal inhibition (IC50).
The result for `O=S(=O)(c1ccc(-c2csc(-c3cccnc3)n2)cc1)N1CCCCC1` [Compound 64] reads 2680 nM; that for `CCC(=O)Nc1nc(-c2ccc(S(=O)(=O)N3CCC(C)CC3)cc2)cs1` [Compound 23], above 80000 nM; that for `CN(C)S(=O)(=O)c1ccc(-c2csc(NC(=O)C3CCC3)n2)cc1` [Compound 42], 1400 nM.
The result for `CCC(=O)Nc1nc(-c2ccc(S(=O)(=O)N(C)C)cc2)cs1` [Compound 40] reads 1100 nM.
`O=C(Nc1nc(-c2ccc(S(=O)(=O)N3CCCC3)cc2)cs1)C1CCCC1` [Compound 30] displayed an IC50 of 730 nM.
The result for `CCN(CC)S(=O)(=O)c1ccc(-c2csc(C)n2)cc1` [Compound 82] reads at least 80000 nM; that for `CCCCCC(=O)Nc1nc(-c2ccc(S(=O)(=O)N(CC)CC)cc2)cs1` [Compound 53], 200 nM.
As to `O=C(Nc1nc(-c2ccc(S(=O)(=O)N3CCCC3)cc2)cs1)C1COc2ccccc2O1` (stereo not drawn) [Compound 63], the IC50 is 1310 nM.
